# Values quoted from earlier work, collected in patent US8153594B2, “Tacrolimus standard and methods of using same” (Siemens Healthcare Diagnostics Inc., priority 2006, dated 2012).
smiles,measurement,value
"C=CC[C@@H]1/C=C(\C)C[C@H](C)C[C@H](OC)[C@H]2O[C@@](O)(C(=O)C(=O)N3CCCC[C@H]3C(=O)O[C@H](/C(C)=C/[C@@H]3CC[C@@H](O)[C@H](OC)C3)[C@H](C)[C@@H](O)CC1=O)[C@H](C)C[C@@H]2OC [tacrolimus, Tacrolimus]",Solubility in water,insoluble in water
